This is an account of results in PubChem BioAssay (NCI).

Holding throughout (assay): growth of human tumour cells (NCI), 48 h
In assay [1] the test system is A549 NSCLC.
Assay [2] relates to ACHN renal.
The subject of assay [3] is COLO 205 colon.
Assay [4] relates to EKVX NSCLC.
Assay [5] concerns HCC-2998 colon.
The subject of assay [6] is HOP-62 NSCLC.
Assay [7] concerns HS 578T breast.
The test system of assay [8] is SK-MEL-2 melanoma.
Assay [9] deals with SNB-75 CNS.
The subject of assay [10] is UO-31 renal.

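A five-concentration, 48-hour dose response in 96-well plates underlies each endpoint, interpolated linearly between surrounding concentrations. TGI: concentration producing complete growth inhibition.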 Where only a bound is given, the exact number is not on record here.

In the case of `Nc1nn2c(nc(N)c3c(N)[nH]nc32)c1N=Nc1ccc(Br)cc1`, the TGI in [1] is more than 100 µM; in assay [2], more than 100 µM; in assay [3], more than 100 µM; in [4], more than 100 µM; in [5], more than 100 µM; in assay [6], more than 93 µM. Also, the TGI in assay [7] is more than 100 µM; in assay [8], 36.5 µM; in [9] it was 59.9 µM; in [10], more than 100 µM.
For the compound `N#Cc1c(-c2ccccc2)[nH]c(=O)n(C2OC(CO)C(O)C(O)C2O)c1=O` (stereo unspecified), the TGI in [1], in assay [2], in [3], in [4], in assay [5] and in assay [6] was more than 100 µM throughout. The TGI in [7], in assay [8], in assay [9] and in [10] was more than 100 µM each time.
Take `CC(=O)OC[C@@H](OC(C)=O)[C@H](OC(C)=O)[C@@H]1OC(C)(C)O[C@@H]1C1SCCCS1`: the TGI in assay [1], in [2], in assay [3], in assay [4], in assay [5] and in assay [6] was more than 100 µM in each case. The TGI in assay [7], in assay [8], in [9] and in assay [10] was more than 100 µM throughout.
For the compound `O=C(CNc1ccccc1[N+](=O)[O-])Nn1c(-c2ccccc2)nc2ccccc2c1=O`, the TGI was more than 100 µM in [1]; 56.9 µM in assay [2]; 53.9 µM in [3]; 36.2 µM in assay [4]; 26.3 µM in [5]; 42.8 µM in assay [6]. The TGI in assay [7] is more than 100 µM; in assay [9], 41.8 µM; in [10], 33.7 µM.
As to `NC1=CN2c3ccccc3N(CC(=O)O)C2C=C1` (stereo unspecified), the TGI in assay [1], in assay [2], in assay [3], in [4], in assay [5] and in assay [6] was more than 100 µM throughout. The TGI in [7], in assay [8], in assay [9] and in [10] was more than 100 µM in each case.
On to `COc1ccc(OC)c(NS(=O)(=O)c2ccc3nc(C)n(NS(=O)(=O)c4cc(OC)ccc4OC)c(=O)c3c2)c1`, for which the TGI in assay [2], in assay [3], in assay [4], in [5], in assay [6] and in assay [7] was more than 100 µM each time. For the same compound, the TGI in assay [8], in assay [9] and in assay [10] was more than 100 µM throughout.
On to `CCNC(=O)c1c(O)c2ccccc2[nH]c1=O`, for which the TGI in assay [1], in assay [2], in assay [3], in assay [4], in assay [5] and in assay [6] was more than 100 µM each time. Besides, the TGI in [7], in assay [9] and in [10] was more than 100 µM each time.
Consider `COc1ccc(N2C(=O)C3c4[nH]c5ccc(F)cc5c4C4CCC(c5ccccc5)CC4C3C2=O)cc1` (stereo unspecified), for which the TGI in [1] was more than 100 µM; in assay [2], 74.1 µM; in assay [3], more than 100 µM; in [4] it was 63 µM; in assay [5] it was more than 100 µM; in assay [6], 28.1 µM. Further, the TGI was 31.8 µM in assay [7], 59.6 µM in assay [8], 31.6 µM in assay [9] and 55.5 µM in assay [10].
`C=C1C(=O)O[C@@H]2C=C(C)C3=CC(=O)[C@](C)(C[C@H](OC(=O)/C(C)=C\C)[C@@H]12)O3`: the TGI in assay [1] stood at 10.1 µM; in assay [2], 3 µM; in assay [3], 2 µM; in [4], 8.78 µM; in assay [5], 3.06 µM; in assay [6] it was 10.5 µM. Besides, the TGI in [7] was 17.7 µM; in assay [8] it was 6.73 µM; in [9], 26.3 µM; in assay [10], 2.37 µM.
Regarding `COc1cc2c(=O)cnoc2cc1O`, the TGI in assay [1], in [2], in [3], in assay [4], in assay [5] and in assay [7] was more than 100 µM each time. Moreover, the TGI in [8], in assay [9] and in [10] was more than 100 µM in each case.
Regarding `COc1ccc2cc(CN3CCC(C4CCNCC4)CC3)ccc2c1`, the TGI in assay [1] turned out to be 36.8 µM; in assay [2], 11.9 µM; in assay [3], 3.25 µM; in assay [4] it was 21.2 µM; in assay [5] it was 1.41 µM; in assay [6], 8.98 µM. For the same compound, the TGI in assay [7] was more than 30.5 µM; in assay [8], 3.81 µM; in assay [9] it was 5.95 µM; in [10], 6.29 µM.
Consider `CCOC(=O)/C(C#N)=C/c1ccnc2ccccc12`, for which the TGI in assay [1], in assay [2], in assay [3], in assay [4], in assay [5] and in [6] was more than 100 µM throughout. In addition, the TGI in assay [7], in [8] and in [9] was more than 100 µM each time.
As for `CC1=NN(c2nc(N)nc(CC#N)n2)C(C)(C)C1`, the TGI in assay [2], in assay [3], in assay [4], in assay [5], in assay [6] and in assay [7] was more than 100 µM throughout. Also, the TGI in assay [8], in assay [9] and in assay [10] was more than 100 µM throughout.
For `CC(=O)N=C1N(/C=C2\C(=O)Oc3ccccc3C2=O)C(=O)/C(=C/c2ccc(Cl)cc2Cl)N1C`, the TGI in [1], in assay [2], in [3], in assay [4], in assay [5] and in assay [6] was more than 100 µM throughout. For the same compound, the values for the TGI in assay [7], in assay [8] and in [9] were 5.03 µM, more than 100 µM and more than 100 µM, respectively.
For `Cc1ccc2oc(=O)c(C(=O)Nc3nc(C45CC6CC(CC(C6)C4)C5)cs3)cc2c1`, the TGI in assay [1], in assay [2], in assay [3], in [4], in assay [5] and in assay [6] was more than 100 µM in each case. Also, the TGI in [7], in assay [9] and in assay [10] was more than 100 µM in each case.
`CC1=Nc2sc3c(c2C2=NCCN12)CCCC3`: the TGI in assay [2] is 69.9 µM; in assay [3], 79.1 µM; in assay [4] it was 94.1 µM; in [5], more than 100 µM; in assay [6], more than 100 µM; in assay [7], 91.1 µM. Further, the TGI was 84.5 µM in [8], more than 100 µM in [9] and 50.5 µM in [10].
For the compound `C=CCO[C@]1(CC=C)C(=O)C(=O)OC1C1COC(C)(C)O1` (stereo partly specified), the TGI was more than 100 µM in [1]; 31.1 µM in assay [2]; 37.5 µM in [3]; more than 100 µM in [4]; more than 100 µM in [5]; more than 100 µM in assay [6]. The TGI in [7] is more than 100 µM; in [9], 77.2 µM; in assay [10] it was more than 100 µM.
`CCOC(=O)c1sc2[n+](c1C)C(=O)/C(=C/c1ccc([N+](=O)[O-])cc1)S2`: the TGI in assay [1] was more than 100 µM; in assay [2], more than 100 µM; in assay [3] it was 68.7 µM; in assay [5] it was 37.5 µM; in [6] it was 74 µM; in assay [7] it was 67 µM. Also, the TGI came to 51.2 µM in assay [8], 49.7 µM in assay [9] and 33.4 µM in assay [10].
`O=C(O)/C(Cc1ccc([N+](=O)[O-])cc1)=N\O`: the TGI in assay [1], in [2], in assay [3], in assay [4], in assay [5] and in assay [6] was more than 100 µM throughout. The TGI in assay [7], in assay [8] and in [10] was more than 100 µM each time.
On to `Nc1ccc(C(=O)c2cn(CCN3CCOCC3)c3ccccc23)c2ccccc12`, for which the TGI in assay [1] is more than 100 µM; in assay [2], more than 100 µM; in assay [3] it was 60.6 µM; in assay [4], 90.8 µM; in assay [5] it was more than 100 µM; in [6] it was more than 100 µM. The TGI in assay [7], in assay [8] and in assay [10] was more than 100 µM throughout.
`Cc1ccc(/C(O)=C/c2nc3ccccc3s/c2=N/CS(=O)(=O)c2ccc(C)cc2)cc1`: the TGI in assay [1], in [2], in assay [3], in assay [5], in assay [6] and in assay [7] was more than 10 µM in each case. This compound yielded a TGI in assay [9] of more than 10 µM.
Consider `O=C(Cc1ccccc1)Nn1c(-c2ccccc2)nc2ccccc2c1=O`, for which the TGI in assay [1], in [2], in assay [3], in assay [4], in [5] and in assay [6] was more than 100 µM each time. Further, the TGI in assay [7], in assay [9] and in assay [10] was more than 100 µM in each case.
Regarding `CC(C)C(/C=C/c1ccc(Cl)c(Cl)c1)=N\NC(=O)N/N=C(/C=C/c1ccc(Cl)c(Cl)c1)C(C)C`, the TGI in [2], in assay [3], in assay [4], in assay [5], in assay [6] and in [7] was more than 100 µM in each case. Moreover, the TGI in assay [9] and in assay [10] was more than 100 µM each time.
Turning to `C=C1C(=O)O[C@H]2[C@@H](O)[C@H](C)CCC[C@]3(C)O[C@H]3CC[C@@]3(C)O[C@@H]3C[C@@H]12`, the TGI in assay [1] is 18.3 µM; in [3], 10.3 µM; in assay [4], 11.3 µM; in assay [5] it was 10.9 µM; in [6], 14.3 µM; in [7] it was 42 µM. Further, the TGI turned out to be 16.6 µM in assay [8], 15.2 µM in assay [9] and 12.4 µM in assay [10].
On to `CC(=O)N=C1N(/C=C2\C(=O)Oc3ccccc3C2=O)C(=O)/C(=C/c2ccc(NC(C)=O)cc2)N1C`, for which the TGI in assay [1], in assay [2], in [3], in assay [4], in assay [5] and in [6] was more than 100 µM each time. The TGI in assay [7], in [8] and in assay [9] was more than 100 µM in each case.
Regarding `CC[C@H]1C=CCC[C@@]2(C[C@@H]3CC[C@H]4[C@@H](C(=O)OCCCCCCCCCCCCCCCC(=O)N(CCCN)C[C@@H](O)CCN)[C@@]5(CCC[C@@H](C)O5)NC(=[N+]34)N2)O1`, the TGI in [1] was 3.35 µM; in assay [2], more than 10 µM; in [3] it was 3.79 µM; in assay [4] it was 3.25 µM; in assay [5], 3.12 µM; in [6], 3.06 µM. The TGI is 3.4 µM in [7], 3.29 µM in assay [8] and more than 10 µM in assay [10].
In the case of `CN(C)C(=O)OC(Cn1cncn1)(Cn1cncn1)c1ccc(Cl)cc1Cl`, the TGI in assay [1], in [3], in assay [4], in assay [5], in assay [6] and in assay [7] was more than 100 µM each time. In addition, the TGI in assay [8], in assay [9] and in [10] was more than 100 µM in each case.
`O=C1c2cc(Cl)ccc2NC(=NCCCl)C2CSCN12` (stereo unspecified): the TGI in [1], in [2], in assay [3], in [4], in [5] and in assay [6] was more than 100 µM in each case. The TGI in assay [7], in assay [8] and in [10] was more than 100 µM throughout.
